Laboratory results reported in publication PMC5321639, “Design and pharmacodynamics of recombinant NZ2114 histidine mutants with improved activity against methicillin-resistant Staphylococcus aureus” (AMB Express, 2017).
In brackets after ≈: the same amount, converted by molar mass. Where a SMILES comes first, the peptide text is derived from it. Bridges are numbered along the chain shown (N, C = ends).

Tests used:
S. aureus ATCC43300 [1] = assay: Effect of pH on activity (MIC); assay type: cell-based, Staphylococcus aureus; conditions: then MIC assay
Description: (§1) The peptide solutions were diluted twofold with the range of final concentrations were 0.015–32 µg/ml (0.003–7.273 µM) for purified H1, H2, H3, H6, and H8. The test strains were grown in MHB medium at 37 °C to an OD600 of 0.4 and diluted to 1 × 10^5 CFU/ml. The 10 µl peptide and 90 µl cell suspension were added into each well. All assays were performed in triplicate. The antimicrobial activity of NZ2114 and vancomycin were tested as positive controls. The plates were incubated at 37 °C for 18–24 h. MIC was defined as the lowest peptide concentration of ones at which there was no visible growth (Tian et al. [2009]).
(§2) The effect of pH, temperature, NaCl concentration and proteinase on the activity of peptides was evaluated. Peptides were diluted twofold, then adjusted to a pH range from 2.0 to 10.0 and incubated at 37 °C for 4 h. The thermal stability of purified peptides was determined after 1-h incubation of peptides at 4, 20, 40, 60, 80 and 100 °C in deionized water, respectively. Aliquots of peptides were incubated in various proteinases solutions [pepsin (pH 2.0), trypsin (pH 8.0), proteinase K (pH 7.0)] at a ratio of 1:10, w/w (proteinase: peptide) at 37 °C for 3 h. For the ion stability, peptides were incubated in 50, 100, 200, 300, 400, 500 mM sodium chloride solutions, respectively. Other methods and conditions were prepared as the MIC assay described above (Li et al. [2015]; Qu et al. [2016]).

S. enteritidis CMCC50336 = assay: MIC assay; assay type: cell-based, Salmonella enteritidis; conditions: MHB, 1 × 10^5 CFU/ml, 37 °C, 18–24 h, triplicate
Description: as §1

S. suis CVCC606 = assay: MIC assay; assay type: cell-based, Streptococcus suis; conditions: MHB, 1 × 10^5 CFU/ml, 37 °C, 18–24 h, triplicate
Description: as §1

S. suis CVCC3928 = assay: MIC assay; assay type: cell-based, Streptococcus suis; conditions: MHB, 1 × 10^5 CFU/ml, 37 °C, 18–24 h, triplicate
Description: as §1

S. suis CVCC3309 = assay: MIC assay; assay type: cell-based, Streptococcus suis; conditions: MHB, 1 × 10^5 CFU/ml, 37 °C, 18–24 h, triplicate
Description: as §1

E. coli CICC21530 = assay: MIC assay; assay type: cell-based, Escherichia coli; conditions: MHB, 1 × 10^5 CFU/ml, 37 °C, 18–24 h, triplicate
Description: as §1

E. coli CVCC195 = assay: MIC assay; assay type: cell-based, Escherichia coli; conditions: MHB, 1 × 10^5 CFU/ml, 37 °C, 18–24 h, triplicate
Description: as §1

mice red blood cells = assay: Hemolytic assay; assay type: cell-based; conditions: 0.23 to 7.27 μM (1–32 μg/ml), 37 °C 1 h
Description: The mice blood cells were washed three times in stroke-physiological saline solution (0.9% NaCl) and centrifuged at 4 °C, 2000 rpm for 5 min. A 50-μl cell was diluted to 8% (v/v), added into 96-well plates, and mixed with 50-μl peptide to the final concentrations ranging from […]. The plates were incubated at 37 °C for 1 h, and centrifuged at 4 °C, 5000 rpm for 5 min. The absorbance of supernatants was measured at 540 nm, and 0 and 100% hemolysis was measured by 0.9% NaCl and 0.1% Triton X-100, respectively. The hemolysis percentages were calculated by the following equation: [(Abs540 nm in H1, H2, H3 solution − Abs540 nm in 0.9% NaCl)/(Abs540 nm in 0.1% Triton X-100 − Abs540 nm in 0.9% NaCl)] ×100% (Jiao et al. [2015]).

S. aureus ATCC43300 [2] = assay: microbe, parasite or virus in culture; assay type: cell-based, Staphylococcus aureus; conditions: for MICc (MIC of the most effective combination): checkerboard; for FIC: MICc/MICa
Description: The MIC values of four antibiotics (vancomycin, ampicillin, rifampicin and ciprofloxacin) to S. aureus ATCC43300 were tested as the MIC assay described above. The peptide solutions and antibiotics were diluted twofold with the final concentrations ranging from 1/16 to 8× MIC, and added into 96-well plates in a checkerboard fashion (White et al. [1996]). The results of combination were evaluated by calculating the fractional inhibitory concentration index (FICI) of each combination. FIC of H1, H2, H3=MIC of H1, H2, H3, respectively, in combination with antibiotic/MIC of H1, H2, H3 alone; FIC of antibiotics=MIC of antibiotic in combination with peptide/MIC of antibiotic alone; FICI = FIC of H1, H2, H3+ antibiotic, respectively. The result of interaction between two antimicrobial drugs was determined according to: FICI ≤ 0.5 refers to synergy, 0.5 < FICI ≤ 1 refers to additivity, 1 < FICI ≤ 4 refers to indifference, and FICI > 4 is defined as antagonism (Tsuji and Rybak [2006]).

S. aureus ATCC43300 [3] = assay: Effect of proteinases on activity (MIC); assay type: cell-based, Staphylococcus aureus; conditions: trypsin (pH 8.0), 1:10 w/w proteinase:peptide, 37 °C for 3 h, then MIC assay
Description: as §1, §2

S. aureus ATCC43300 [4] = assay: Effect of NaCl concentration on activity (MIC); assay type: cell-based, Staphylococcus aureus
Description: as §1, §2

S. pneumoniae CVCC1.8722 = assay: MIC assay; assay type: cell-based, Streptococcus pneumoniae; conditions: MHB, 1 × 10^5 CFU/ml, 37 °C, 18–24 h, triplicate
Description: as §1

[5] = system: S. aureus ATCC43300 (MRSA); assay: Time-kill curve assay; assay type: cell-based, Staphylococcus aureus; conditions: for time for bacterial counts to decrease to 2 log10 CFU/ml (a 99.9% reduction): start 1 × 10^5 CFU/ml, 37 °C, triplicate
Description: Bacterial culture (S. aureus ATCC43300) was diluted to 1 × 10^5 CFU/ml and H1, H2, and H3 were added. […] The mixture was cultivated at 250 rpm, 37 °C. The 100-µl samples were taken from each flask at 0, 2, 4, 6, 8, 12 and 24 h of incubation, and serial dilutions of samples were plated to count visible colonies. Vancomycin was tested in the same way as a positive control and the culture without antimicrobial agent as a negative control (Xiong et al. [2011]). All experiments were performed in triplicate.

[6] = in combination with ciprofloxacin

CC[C@H](C)[C@@H]1NC(=O)[C@H](CO)NC(=O)[C@H](CCCCN)NC(=O)[C@@H]2CSSC[C@@H](C(=O)N[C@@H](Cc3ccc(O)cc3)C(=O)O)NC(=O)[C@H](CCCCN)NC(=O)[C@@H]3CSSC[C@H](NC(=O)[C@H](CCCNC(=N)N)NC(=O)[C@H](CC(C)C)NC(=O)[C@H](CC(=O)O)NC(=O)[C@H](CC(=O)O)NC(=O)[C@H](CCC(=O)O)NC(=O)[C@H](CC(N)=O)NC(=O)[C@H](Cc4c[nH]c5ccccc45)NC(=O)[C@@H]4CCCN4C(=O)CNC(=O)[C@H](CC(N)=O)NC(=O)[C@@H](NC(=O)CNC(=O)[C@H](Cc4ccccc4)NC(=O)CN)CSSC[C@H](NC(=O)[C@H](Cc4ccc(O)cc4)NC(=O)CNC(=O)CNC(=O)[C@H](CCCCN)NC(=O)[C@H](Cc4ccc(O)cc4)NC(=O)CNC(=O)[C@H](CCCCN)NC1=O)C(=O)N[C@@H](C)C(=O)N[C@@H](CCCCN)C(=O)NCC(=O)NCC(=O)N[C@@H](Cc1ccccc1)C(=O)N[C@@H](C(C)C)C(=O)N3)C(=O)N[C@@H](CCCNC(=N)N)C(=O)N[C@@H](CC(N)=O)C(=O)N[C@@H](Cc1c[nH]cn1)C(=O)N2 [H2] (H-GFGCNGPWNEDDLRCRNHCKSIKGYKGGYCAKGGFVCKCY-OH; disulfide 4-30, 15-37, 19-39 (inferred); N-terminus and C-terminus assumed)
MIC after incubation at pH2 (S. aureus ATCC43300 [1]; pH 2, 37 °C for 4 h): 0.114 μM | MIC after incubation at pH4 (S. aureus ATCC43300 [1]; pH 4, 37 °C for 4 h): 0.114 μM | MIC after incubation at pH6 (S. aureus ATCC43300 [1]; pH 6, 37 °C for 4 h): 0.114 μM | MIC after incubation at pH8 (S. aureus ATCC43300 [1]; pH 8, 37 °C for 4 h): 0.114 μM | MIC after incubation at pH10 (S. aureus ATCC43300 [1]; pH 10, 37 °C for 4 h): 0.114 μM | MIC (S. enteritidis CMCC50336): >7.273 µM | MIC (S. suis CVCC606): 0.028 µM (≈ 0.124 µg/mL) | MIC (S. suis CVCC3928): 0.014 µM (≈ 0.062 µg/mL) | MIC (S. suis CVCC3309): 0.028 µM (≈ 0.124 µg/mL) | MIC (E. coli CICC21530): >7.273 µM | MIC (E. coli CVCC195): >7.273 µM | hemolytic activity (mice red blood cells): little or no hemolytic activity | MICc (MIC of the most effective combination) (S. aureus ATCC43300 [2]; in combination with ampicillin): 0.113 µM | MICc (MIC of the most effective combination) (S. aureus ATCC43300 [2]; [6]): 0.227 µM | MICc (MIC of the most effective combination) (S. aureus ATCC43300 [2]; in combination with rifampicin): 0.056 µM | MICc (MIC of the most effective combination) (S. aureus ATCC43300 [2]; in combination with vancomycin): 0.113 µM | MIC (S. aureus ATCC43300 [2]; drug alone, read-out: MICa (MIC of drug alone)): 0.113 µM | FIC (S. aureus ATCC43300 [2]; in combination with ampicillin): 1 | FIC (S. aureus ATCC43300 [2]; [6]): 2 | FIC (S. aureus ATCC43300 [2]; in combination with rifampicin): 0.5 | FIC (S. aureus ATCC43300 [2]; in combination with vancomycin): 1 | MIC after Trypsin (S. aureus ATCC43300 [3]): 0.454 µM (≈ 2.01 µg/mL) | MIC in 50 mM NaCl (S. aureus ATCC43300 [4]; incubated in 50 mM sodium chloride solution): 0.114 µM (≈ 0.505 µg/mL) | MIC in 100 mM NaCl (S. aureus ATCC43300 [4]; incubated in 100 mM sodium chloride solution): 0.114 µM (≈ 0.505 µg/mL) | MIC in 300 mM NaCl (S. aureus ATCC43300 [4]; incubated in 300 mM sodium chloride solution): 0.227 µM (≈ 1.01 µg/mL) | MIC in 400 mM NaCl (S. aureus ATCC43300 [4]; incubated in 400 mM sodium chloride solution): 0.227 µM (≈ 1.01 µg/mL) | MIC in 500 mM NaCl (S. aureus ATCC43300 [4]; incubated in 500 mM sodium chloride solution): 0.227 µM (≈ 1.01 µg/mL) | MIC (S. pneumoniae CVCC1.8722): 0.227 µM (≈ 1.01 µg/mL) | time for bacterial counts to decrease to 2 log10 CFU/ml (a 99.9% reduction) ([5]; 1× MIC): 1.5 h | regrowth of pathogens up to 24 h ([5]; 1×, 2× and 4× MIC, maintained to 24 h): without regrowth | time for bacterial counts to decrease to 2 log10 CFU/ml (a 99.9% reduction) ([5]; 2× MIC): 1 h | time for bacterial counts to decrease to 2 log10 CFU/ml (a 99.9% reduction) ([5]; 4× MIC): 0.5 h
